Experimental data reported in patent publication US7799763B2, “Muscle-strengthening drugs and anti-inflammatory drugs” (Daicho Kikaku Incorporated Company, priority 2002, dated 2010).

Experiments:
[1] = test system: patients with walking difficulties, proctoptosia, backaches, limb pains; test: Tablets of Example 4 administered once a day to aged patients with muscle disorders; assay type: in vivo, human; settings: single regular dose of drugs admixed with one of scymnol, isoflavone, and cholic acid
Text: In Western medicine, it has been understood that proctoptosia and leg, lumbus and arm aches are attributable only to hematogenous disorders and resultant inflammation at local sites. […] Thus, it can be understood that these disorders are attributed to insufficient communication of brain commands to local sites and therefore the hematogenous disorders and onset of inflammation are problems caused by abnormal motions of muscles due to incomplete communication of brain commands.

adrenaline secretion = test: Animal experiments using mice: secretomotory action on adrenaline (blood glucose levels); assay type: in vivo
Text: No studies have been conducted on the efficacy of curcumin, zingerone, or shogaol on the stimulation of adrenaline secretion.

C[C@H](CCC(=O)O)[C@H]1CC[C@H]2[C@@H]3[C@H](O)C[C@@H]4C[C@H](O)CC[C@]4(C)[C@H]3C[C@H](O)[C@]12C [cholic acid]
effect on proctoptosia and leg, lumbus and arm aches [1]: not significantly ameliorated

COc1cc(/C=C/C(=O)/C=C(O)/C=C/c2ccc(O)c(OC)c2)ccc1O [curcumin]
blood glucose levels (secretomotory action on adrenaline) (adrenaline secretion): remarkably elevated

C[C@H](CC[C@@H](O)C(CO)CO)C1CCC2C3C(C[C@H](O)[C@@]21C)[C@@]1(C)CC[C@@H](O)CC1C[C@H]3O (some centres unmarked) [scymnol, Scymnol]
effect on proctoptosia and leg, lumbus and arm aches [1]: not significantly ameliorated

COc1cc(CCC(C)=O)ccc1O [zingerone]
blood glucose levels (secretomotory action on adrenaline) (adrenaline secretion): remarkably elevated

CCCCC/C=C/C(=O)CCc1ccc(O)c(OC)c1 [shogaol, (6)-shogaol]
blood glucose levels (secretomotory action on adrenaline) (adrenaline secretion): remarkably elevated
